Measurements: ChEMBL document CHEMBL3396990, “Development of 1,3-diphenyladamantane derivatives as nonsteroidal progesterone receptor antagonists” (Bioorg Med Chem, 2015)
Activity calls are given as the source filed them. No cut-off for these calls is given here.

Experiments:
[1] = molecular target: T1, Progesterone receptor (Homo sapiens) (UniProt P06401); assay: Agonist activity at PR in human T47D cells assessed as induction of alkaline phosphatase expression after 24 hrs by plate reader analysis; assay type: cell-based
T1 sequence (whole entry): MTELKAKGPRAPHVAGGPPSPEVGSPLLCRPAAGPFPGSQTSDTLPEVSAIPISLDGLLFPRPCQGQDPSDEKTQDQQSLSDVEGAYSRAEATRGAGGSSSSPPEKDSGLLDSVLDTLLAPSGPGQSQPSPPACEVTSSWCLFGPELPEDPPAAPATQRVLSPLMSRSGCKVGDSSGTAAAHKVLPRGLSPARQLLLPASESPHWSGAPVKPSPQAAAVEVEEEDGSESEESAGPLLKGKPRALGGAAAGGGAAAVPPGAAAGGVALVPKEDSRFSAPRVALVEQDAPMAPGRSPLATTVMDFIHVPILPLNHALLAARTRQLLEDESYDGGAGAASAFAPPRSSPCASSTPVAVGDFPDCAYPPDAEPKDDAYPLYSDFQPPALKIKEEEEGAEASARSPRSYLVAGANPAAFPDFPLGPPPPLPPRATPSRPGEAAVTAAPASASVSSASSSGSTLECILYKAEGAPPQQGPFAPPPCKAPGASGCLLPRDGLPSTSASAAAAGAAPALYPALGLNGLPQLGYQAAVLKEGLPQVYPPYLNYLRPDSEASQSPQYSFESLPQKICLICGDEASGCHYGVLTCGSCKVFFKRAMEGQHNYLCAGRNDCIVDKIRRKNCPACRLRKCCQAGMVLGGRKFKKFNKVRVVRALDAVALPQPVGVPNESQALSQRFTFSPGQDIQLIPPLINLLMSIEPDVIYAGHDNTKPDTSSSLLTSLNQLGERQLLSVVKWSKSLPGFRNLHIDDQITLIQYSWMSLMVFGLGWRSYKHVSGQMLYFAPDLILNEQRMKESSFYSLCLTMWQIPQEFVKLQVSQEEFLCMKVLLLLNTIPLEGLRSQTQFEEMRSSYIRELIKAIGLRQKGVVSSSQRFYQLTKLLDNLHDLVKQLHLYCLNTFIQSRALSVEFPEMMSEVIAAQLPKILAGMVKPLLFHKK

Progesterone receptor [2] = molecular target: T2, Progesterone receptor (Homo sapiens, UniProt P06401); assay: Antagonist activity at PR in human T47D cells assessed as inhibition of progesterone-inducted alkaline phosphatase expression after 24 hrs by plate reader analysis; assay type: cell-based
T2 sequence (P06401 whole entry): T1 sequence (whole entry)

Progesterone receptor [3] = molecular target: T2, Progesterone receptor; assay: Displacement of [1,2,6,7-3H]progesterone from human recombinant PR LBD after 24 hrs by liquid scintillation counting analysis

## N#Cc1ccc(C23CC4CC(C2)CC(c2ccc(NC(=O)c5ccccc5)cc2)(C4)C3)cc1
[1]
  Activity: inactive
Progesterone receptor [2]
  IC50: 404 nM

## CN(c1ccc(C23CC4CC(CC(c5ccc(C#N)cc5)(C4)C2)C3)cc1)S(C)(=O)=O
[1]
  Activity: inactive
Progesterone receptor [2]
  IC50: 74 nM

## CS(=O)(=O)Nc1ccc(C23CC4CC(CC(c5ccc(C#N)cc5)(C4)C2)C3)cc1
[1]
  Activity: inactive
Progesterone receptor [2]
  IC50: 119 nM

## N#Cc1ccc(C23CC4CC(CC(c5ccc(N)cc5)(C4)C2)C3)cc1
[1]
  Activity: inactive
Progesterone receptor [2]
  IC50: 178 nM

## CCN(C(C)=O)c1ccc(C23CC4CC(CC(c5ccc(C#N)cc5)(C4)C2)C3)cc1
[1]
  Activity: inactive
Progesterone receptor [2]
  IC50: 39.5 nM

## CC(=O)Nc1ccc(C23CC4CC(CC(c5ccc(C#N)cc5)(C4)C2)C3)cc1
[1]
  Activity: inactive
Progesterone receptor [2]
  IC50: 58.4 nM

## CCCCCC(=O)Nc1ccc(C23CC4CC(CC(c5ccc(C#N)cc5)(C4)C2)C3)cc1
[1]
  Activity: inactive
Progesterone receptor [2]
  IC50: 174 nM

## CC(=O)N(C)c1ccc(C23CC4CC(CC(c5ccc(C#N)cc5)(C4)C2)C3)cc1
[1]
  Activity: inactive
Progesterone receptor [3]
  IC50: 53 nM
Progesterone receptor [2]
  IC50: 25.8 nM

## COC(=O)N(C)c1ccc(C23CC4CC(CC(c5ccc(C#N)cc5)(C4)C2)C3)cc1
[1]
  Activity: inactive
Progesterone receptor [2]
  IC50: 36.2 nM

## CN(C(=O)c1ccccc1)c1ccc(C23CC4CC(CC(c5ccc(C#N)cc5)(C4)C2)C3)cc1
[1]
  Activity: inactive
Progesterone receptor [3]
  IC50: 228 nM
Progesterone receptor [2]
  IC50: 311 nM

## N#Cc1ccc(C23CC4CC(C2)CC(c2ccc(N(Cc5ccccc5)Cc5ccccc5)cc2)(C4)C3)cc1
[1]
  Activity: inactive
Progesterone receptor [2]
  IC50: > 1000 nM

## CCCCCC(=O)N(C)c1ccc(C23CC4CC(CC(c5ccc(C#N)cc5)(C4)C2)C3)cc1
[1]
  Activity: inactive
Progesterone receptor [2]
  IC50: 125 nM

## N#Cc1ccc(C23CC4CC(C2)CC(c2ccc([N+](=O)[O-])cc2)(C4)C3)cc1
[1]
  Activity: inactive
Progesterone receptor [2]
  IC50: 53 nM

## COC(=O)Nc1ccc(C23CC4CC(CC(c5ccc(C#N)cc5)(C4)C2)C3)cc1
[1]
  Activity: inactive
Progesterone receptor [3]
  IC50: > 10000 nM
Progesterone receptor [2]
  IC50: 25 nM
